Data taken from PMC12345137 (mBio, 2025).
Entries after “also recorded” stand apart in the source; their conditions may differ. Where two headings read alike, the source gives them in different places. Positions of bridges follow the written chain, without caps; N, C: chain ends. Residues, ends and D or L forms follow the SMILES beside them.

Columns and labels:
S. epidermidis agr-II = S. epidermidis agr-II (Staphylococcus epidermidis, UniProt Q8VSX5); test: cell-based; format: cell-based; conditions: for QS interaction in words (inhibition / activation), S. epidermidis agr-II: fluorescent reporter strain, peptides tested at 1000, 50, 2.5, 0.125 nM or in dose-response
Sequence of S. epidermidis agr-II (Q8VSX5 entry or part of it): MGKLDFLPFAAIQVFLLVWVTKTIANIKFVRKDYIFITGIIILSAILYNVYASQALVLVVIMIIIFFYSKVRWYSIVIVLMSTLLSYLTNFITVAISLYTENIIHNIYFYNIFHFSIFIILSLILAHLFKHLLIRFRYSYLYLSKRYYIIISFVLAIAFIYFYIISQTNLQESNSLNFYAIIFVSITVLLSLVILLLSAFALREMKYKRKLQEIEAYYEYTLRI
Summary of the method: (§1)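 Reporter strains (S. aureus P3-YFP, CAM 10 μg/mL; S. epidermidis P3-sGFP, ERM 10 μg/mL) diluted 1:100 in TSB with peptide (1:5 serial dilutions for IC50), 37°C shaking, 22–24 h. Fluorescence background-subtracted, OD600-normalized, relative to untreated wells; IC50 by variable-slope non-linear regression.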

S. epidermidis agr-III = S. epidermidis agr-III (Staphylococcus epidermidis, UniProt Q8VSX2); test: cell-based; format: cell-based; conditions: for QS interaction in words (inhibition / activation), S. epidermidis agr-III: fluorescent reporter strain, peptides tested at 1000, 50, 2.5, 0.125 nM or in dose-response
Sequence of S. epidermidis agr-III (Q8VSX2 entry or part of it): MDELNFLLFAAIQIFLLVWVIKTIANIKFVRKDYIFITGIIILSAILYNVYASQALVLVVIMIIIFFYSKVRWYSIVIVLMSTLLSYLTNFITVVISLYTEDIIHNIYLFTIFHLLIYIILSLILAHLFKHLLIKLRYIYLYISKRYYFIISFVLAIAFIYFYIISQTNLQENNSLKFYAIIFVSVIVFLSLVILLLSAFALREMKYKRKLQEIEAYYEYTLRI
Summary of the method: as §1

S. aureus agr-IV = S. aureus agr-IV (Staphylococcus aureus, UniProt Q309Z2); test: cell-based; format: cell-based
Sequence of S. aureus agr-IV (Q309Z2 entry or part of it): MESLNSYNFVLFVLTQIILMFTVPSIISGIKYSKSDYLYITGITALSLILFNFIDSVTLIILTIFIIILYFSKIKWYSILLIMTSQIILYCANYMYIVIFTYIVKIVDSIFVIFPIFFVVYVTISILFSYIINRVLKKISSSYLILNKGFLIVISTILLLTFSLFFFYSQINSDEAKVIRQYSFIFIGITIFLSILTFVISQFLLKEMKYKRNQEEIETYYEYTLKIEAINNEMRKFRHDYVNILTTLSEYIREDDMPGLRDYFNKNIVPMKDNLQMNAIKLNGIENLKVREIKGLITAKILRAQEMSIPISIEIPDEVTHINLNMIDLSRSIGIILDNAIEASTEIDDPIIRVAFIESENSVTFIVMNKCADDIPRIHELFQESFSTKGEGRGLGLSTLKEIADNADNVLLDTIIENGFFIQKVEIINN
Summary of the method: as §1

S. aureus agr-II = S. aureus agr-II (Staphylococcus aureus, UniProt O33587); test: cell-based
Sequence of S. aureus agr-II (O33587 entry or part of it): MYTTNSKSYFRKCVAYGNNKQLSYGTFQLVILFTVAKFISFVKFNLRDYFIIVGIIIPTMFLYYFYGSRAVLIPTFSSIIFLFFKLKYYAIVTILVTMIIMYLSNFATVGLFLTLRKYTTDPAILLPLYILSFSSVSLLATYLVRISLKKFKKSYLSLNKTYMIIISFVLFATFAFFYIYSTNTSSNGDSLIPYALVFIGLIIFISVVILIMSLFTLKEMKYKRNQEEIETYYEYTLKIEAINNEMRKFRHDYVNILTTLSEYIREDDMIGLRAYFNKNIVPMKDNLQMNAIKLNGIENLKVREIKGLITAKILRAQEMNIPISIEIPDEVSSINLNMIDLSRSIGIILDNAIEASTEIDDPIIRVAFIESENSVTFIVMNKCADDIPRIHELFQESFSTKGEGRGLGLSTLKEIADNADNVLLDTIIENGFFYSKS
Summary of the method: as §1

S. aureus agr-III = S. aureus agr-III (Staphylococcus aureus, UniProt O33590); test: cell-based
Sequence of S. aureus agr-III (O33590 entry or part of it): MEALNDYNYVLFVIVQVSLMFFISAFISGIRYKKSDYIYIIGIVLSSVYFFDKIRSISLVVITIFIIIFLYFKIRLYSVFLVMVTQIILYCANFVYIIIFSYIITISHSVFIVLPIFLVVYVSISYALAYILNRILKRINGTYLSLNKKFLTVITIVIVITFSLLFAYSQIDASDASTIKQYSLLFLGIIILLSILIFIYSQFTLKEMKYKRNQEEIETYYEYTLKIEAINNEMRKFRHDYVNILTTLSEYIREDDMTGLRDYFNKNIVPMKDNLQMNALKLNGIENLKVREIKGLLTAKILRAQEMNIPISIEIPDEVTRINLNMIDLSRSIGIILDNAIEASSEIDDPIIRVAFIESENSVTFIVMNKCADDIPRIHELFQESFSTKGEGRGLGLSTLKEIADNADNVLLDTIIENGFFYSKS
Summary of the method: as §1

SA AgrC-II = SA AgrC-II (Staphylococcus aureus, UniProt O33587)
Sequence of SA AgrC-II (O33587 entry or part of it): as the sequence (O33587 entry or part of it) above

SA AgrC-IV = SA AgrC-IV (Staphylococcus aureus, UniProt Q309Z2)
Sequence of SA AgrC-IV (Q309Z2 entry or part of it): as the sequence (Q309Z2 entry or part of it) above

[1] = fluorescent reporter strain, peptides tested at 1000, 50, 2.5, 0.125 nM or in dose-response
[2] = 100 nM cognate AIP; ± SEM; -b = no inhibition recorded at the highest AIP concentration tested; determined previously; ref (1); read-out: IC50, SA AgrC-II, b-lactamase assay; cited from earlier work

NCCCC[C@H](N)C(=O)N[C@@H](Cc1ccc(O)cc1)C(=O)N[C@@H](Cc1ccc(O)cc1)C(=O)N1CCC[C@H]1C(=O)N[C@H]1CSC(=O)[C@H](Cc2ccccc2)NC(=O)[C@H](Cc2ccc(O)cc2)NC(=O)CNC(=O)[C@H](Cc2c[nH]c3ccccc23)NC1=O [compound 33, S. simulans AIP-II] (H-KYYPCWGYF; thioester 5-C)
IC50 (S. epidermidis agr-II): 0.26 ± 0.08 nM
QS interaction in words (inhibition / activation), S. epidermidis agr-II (S. epidermidis agr-II): inhibited
IC50 (S. epidermidis agr-III): 0.6 ± 0.2 nM
QS interaction in words (inhibition / activation), S. epidermidis agr-III (S. epidermidis agr-III): inhibited; also recorded: sub-nanomolar inhibition
IC50 (S. aureus agr-IV): 31 ± 7 nM
QS interaction in words (inhibition / activation), S. aureus agr-IV (S. aureus agr-IV; [1]): inhibited
IC50 (S. aureus agr-II): 0.8 ± 0.2 nM
QS interaction in words (inhibition / activation), S. aureus agr-II (S. aureus agr-II; [1]): inhibited
IC50 (S. aureus agr-III): 2.8 ± 0.3 nM
QS interaction in words (inhibition / activation), S. aureus agr-III (S. aureus agr-III; [1]): inhibited

S. aureus AIP-III D4A [compound 57, reference compound]
IC50 (SA AgrC-II; [2]): 34 ± 1 nM
QS interaction in words (inhibition / activation), S. epidermidis agr-II (S. epidermidis agr-II): weak interference
QS interaction in words (inhibition / activation), S. epidermidis agr-III (S. epidermidis agr-III): weak interference
QS inhibition at […], S. aureus agr-IV (S. aureus agr-IV; […] peptide, fluorescent reporter strain): > 95%
IC50 (SA AgrC-IV; 100 nM cognate AIP; ± SEM; -b = no inhibition recorded at the highest AIP concentration tested; determined previously; ref (1); read-out: IC50, SA AgrC-IV, b-lactamase assay; cited from earlier work): 10 ± 0.2 nM

NCCCC[C@H](N)C(=O)N[C@@H](Cc1ccc(O)cc1)C(=O)N[C@@H](CC(N)=O)C(=O)N1CCC[C@H]1C(=O)N[C@H]1CSC(=O)[C@H](Cc2ccccc2)NC(=O)[C@H](Cc2ccc(O)cc2)NC(=O)CNC(=O)[C@H](Cc2c[nH]c3ccccc23)NC1=O [compound 34, S. simulans AIP-III] (H-KYNPCWGYF; thioester 5-C)
IC50 (S. epidermidis agr-II): 0.11 ± 0.02 nM
QS interaction in words (inhibition / activation), S. epidermidis agr-III (S. epidermidis agr-III): activated; also recorded: activators
QS interaction in words (inhibition / activation), S. epidermidis agr-III (S. epidermidis agr-III; listed as S. simulans AIP-III): activator
IC50 (S. aureus agr-IV): 34 nM
IC50 (S. aureus agr-II): 0.22 ± 0.06 nM
IC50 (S. aureus agr-III): 0.59 ± 0.04 nM

CC(C)C[C@@H]1NC(=O)[C@@H](NC(=O)[C@@H]2CCCN2C(=O)[C@H](CC(N)=O)NC(=O)[C@H](Cc2ccc(O)cc2)NC(=O)[C@@H](N)CCCCN)CSC(=O)[C@H](CC(C)C)NC(=O)[C@H](Cc2ccccc2)NC(=O)CNC1=O [compound 32, S. simulans AIP-I] (H-KYNPCLGFL; thioester 5-C; N-terminus assumed)
IC50 (SA AgrC-II; read-out: IC50, SA AgrC-II, b-lactamase assay; 100 nM cognate AIP; ± SEM; -b = no inhibition recorded at the highest AIP concentration tested; determined previously; ref (1); cited from earlier work): 23 ± 2 nM
IC50 (S. epidermidis agr-II): 0.26 ± 0.01 nM
QS interaction in words (inhibition / activation), S. epidermidis agr-III (S. epidermidis agr-III): activated; also recorded: activators
QS interaction in words (inhibition / activation), S. epidermidis agr-III (S. epidermidis agr-III; listed as S. simulans AIP-I): activation
IC50 (S. aureus agr-IV): 10 nM
IC50 (S. aureus agr-II): 0.31 ± 0.01 nM
IC50 (S. aureus agr-III): 0.53 ± 0.02 nM
IC50 (SA AgrC-IV; read-out: IC50, SA AgrC-IV, b-lactamase assay; 100 nM cognate AIP; ± SEM; -b = no inhibition recorded at the highest AIP concentration tested; determined previously; ref (1); cited from earlier work): 280 ± 66 nM

CC[C@H](C)[C@@H]1NC(=O)[C@H](Cc2ccccc2)NC(=O)[C@H](CC(=O)O)NC(=O)[C@@H](NC(=O)[C@@H](NC(=O)[C@H](CO)NC(=O)[C@@H](N)Cc2ccc(O)cc2)[C@@H](C)O)CSC(=O)[C@H](CCSC)NC1=O [compound 1, S. aureus AIP-I] (H-YSTCDFIM; thioester 4-C)
IC50 (SA AgrC-II; [2]): 700 ± 165 nM
IC50 (S. epidermidis agr-II): > 1000 nM
IC50 (S. epidermidis agr-III): > 1000 nM
IC50 (S. aureus agr-II): 5.8 ± 0.7 nM
IC50 (S. aureus agr-III): 0.91 nM
EC50 (SA AgrC-IV; ± SEM; determined previously; ref (1); read-out: EC50, SA AgrC-IV, b-lactamase assay; cited from earlier work): 790 ± 66 nM
